According to US20090030088A1, “Therapeutic benefits of gossypol, 6-methoxy gossypol, and 6,6'-dimothxy gossypol” (Clemson University, priority 2007, published 2009):

What was measured:
[1] = DPPH free radical scavenging assay; conditions: for concentration to scavenge 50% free radicals (IC50 value): DPPH in DCM, 30 min
Experimental: DPPH Free Radical Scavenging Assay. Scavenging activities on DPPH free radicals by gossypol and methoxy gossypol derivatives were determined according to the method of (9) with slight modification. The reaction mixture was made by mixing 0.4 mL of sample solution in DCM and same volume of 0.25 mM DPPH in DCM, shaken vigorously, incubated for 30 min in the dark at room temperature, and measured spectrophotometrically at 517 nm. BHT, a common used antioxidant, was used as a standard for comparison. The lower absorbance of reaction mixture indicated higher free radical scavenging activity, and the reduction of DPPH free radicals was calculated as following: […]

[2] = test system: SiHa (cervical cancer cell line); experiment: Cancer cell proliferation assay (CellTiter 96), SiHa; format: cell-based; conditions: 10 ppm
Experimental: (§1) Anticancer Activities. Three cancer cell lines, MCF-7 (human breast cancer cell line), Caco-2 (human colon cancer cell line) and SiHa (cervical cancer cell line) were purchased from American Type Culture Collection (ATCC) (Rockville, Md.). MCF-7 and SiHa were cultured in RPMI-1640 with L-glutamine (2 mM), sodium pyruvate (1 mM), penicillin (100 unit/mL), streptomycin (0.1 mg/mL), 0.1 mM non-essential amino acids, 2.0 g/L sodium bicarbonate and 10% newborn calf serum. For Caco-2 cells, 10% fetal bovine serum was added instead of 10% newborn calf serum. All cell lines were incubated at 37° C. with 5% CO2 and 90-100% relative humidity. Medium renewal was carried out 2-3 times per week, and cells were subcultured when they were about 80-90% confluence.
(§2) Prior to chemical treatment, 10^4 cells/well (100 μL) were seeded into a 96-well tissue culture plate, and allowed to attach for 24 hours, then treated with defined concentrations of the tested chemicals in DMSO. Negative controls were cells treated with DMSO only, and DMSO concentration was kept 2% in each well. After 24 hour incubation, cell proliferation was determined using the CellTiter 96® aqueous nonradioactivity cell proliferation assay according to the manufacture's recommendations (Promega, Madison, Wis.) and recorded on universal EL800 Bio-Tek microplate reader at 490 nm.

[3] = test system: MCF-7 (human breast cancer cell line); experiment: Cancer cell proliferation assay (CellTiter 96), MCF-7; format: cell-based; conditions: 10 ppm
Experimental: as §1, §2

[4] = test system: Caco-2 (human colon cancer cell line); experiment: Cancer cell proliferation assay (CellTiter 96), Caco-2; format: cell-based; conditions: 10 ppm
Experimental: as §1, §2

[5] = test system: plasmid DNA; experiment: DNA strand scission assay (H2O2/UV hydroxyl radicals); design: species or system E. coli; conditions: no oxidative stress
Experimental: Analysis of DNA Strand Breakage. The DNA strand scission assay was performed as described by Keum et al., (11) with minor modifications. The plasmid DNA was prepared and purified from E. coli cultures by the method (12). The reaction mixture (15 μL) contained 10 mM Tris-HCl, 1 mM EDTA buffer (pH 8.0), plasmid DNA (1 μL), and H2O2 (0.04 M). Gossypol and methoxy gossypol derivatives dissolved in DMSO at the defined concentrations were added prior to H2O2 addition. Hydroxyl radicals were generated by irradiation of the reaction mixture at a distance of 30 cm with a 12 W UV lamp. After incubation at room temperature for 30 min, the reaction was stopped by adding a loading buffer (0.25% bromophenol blue tracking dye and 40% sucrose), and analyzed by 1% agarose gel electrophoresis. The gel was visualized by staining with ethidium bromide, and photographed on a transiluminator (Biorad).

[6] = test system: Trypanosome brucei cells; experiment: Anti-trypanosomal activity, relative cell viability by flow cytometry; format: cell-based
Experimental: Anti-trypanosomal activities. Trypanosome brucei cells were grown in HMI-9 medium supplemented with 10% heat-inactivated fetal bovine serum and cultured as described by (13). Prior to treatment, 200 μL of the cells were seeded into 96-well tissue culture plate and treated with 2 μL of gossypol or methoxy gossypol derivatives dissolved in DMSO. After 24 hour incubation at 37° C. with 5% CO2 and 90-100% relative humidity, the cells were counted on a Becton Dickinson FACScan flow Cytometer, and the relative cell viability was calculated by comparing the vital cell number with control wells treated only with DMSO. Statistical Analysis. Each experiment was done at least three times, mean values were average of the triplicates, and the data were subjected to the analysis of variance (ANOVA).

Structure (SMILES)	concentration to scavenge 50% free radicals (IC50 value) [1] [ppm]	free radicals scavenged ([1]; compound at 20 ppm) [%]	cancer inhibitive activity compared with gossypol [2]	cancer inhibitive activity compared with gossypol [3]	cancer inhibitive activity compared with gossypol [4]	DNA damage by the presence of the chemical alone [5]	inhibition of trypanosome cell growth ([6]; 1 ppm, 24 hour incubation) [%]	free radicals scavenged ([1]; BHT at 1000 ppm) [%]	free radicals scavenged ([1]; BHT at 1500 ppm) [%]	inhibition at 1 ppm ([6]; 24 h, read-out: inhibition of trypanosome cell growth) [%]
COc1c(O)c(C=O)c2c(O)c(-c3c(C)cc4c(C(C)C)c(OC)c(O)c(C=O)c4c3O)c(C)cc2c1C(C)C [6,6′-dimethoxy gossypol]	16.8	60	higher cancer inhibitive activity than gossypol	higher cancer inhibitive activity than gossypol	higher cancer inhibitive activity than gossypol					
COc1c(O)c(C=O)c2c(O)c(-c3c(C)cc4c(C(C)C)c(O)c(O)c(C=O)c4c3O)c(C)cc2c1C(C)C [6-methoxy gossypol]	16.4	60	higher cancer inhibitive activity than gossypol	higher cancer inhibitive activity than gossypol	higher cancer inhibitive activity than gossypol	did not cause the DNA damage	40			
Cc1cc(C(C)(C)C)c(O)c(C(C)(C)C)c1 [BHT, butylated hydroxytoluene, reference compound]								~60	75	
Cc1cc2c(C(C)C)c(O)c(O)c(C=O)c2c(O)c1-c1c(C)cc2c(C(C)C)c(O)c(O)c(C=O)c2c1O [gossypol]						did not cause the DNA damage				40
